The values below are quoted from earlier work in patent US20110237609A1, “ANTIFOLATE COMPOSITIONS” (Chelsea Therapeutics, Inc., priority 2010, published 2011).

For series [1] the following is noted: in words; b190 refers to US 20090253720.
For series [2] the following is noted: in words, background statement.

SMILES strings stand for the structures.

In the case of `C=C(CC(NC(=O)c1ccc(CCc2ccc3nc(N)nc(N)c3c2)cc1)C(=O)O)C(=O)O` (stereo not drawn), the solubility characteristics result in series [1] was “improved solubility characteristics in comparison to the dioic acid form”. For `C=C(CC(NC(=O)c1ccc(CCc2ccc3nc(N)nc(N)c3c2)cc1)C(=O)O)C(=O)O` (racemic) [compound of Formula (9), 2-{-4-[2-(2,4-diamino-quinazolin-6-yl)-ethyl]-benzoylamino}-4-methylene-pentanedioic acid], the solubility characteristics entry in series [1] was “low solubility”. For the same molecule, the bioavailability entry in series [2] is reported as “low bioavailability”.
